# Data: the Biogen ADME set (Fang et al. 2023)
# Non-standard residues stand in square brackets, D forms with d. Residues, ends and D or L forms follow the SMILES beside them. *: point of attachment. Fmoc = O=C(OCC1c2ccccc2-c2ccccc21)*; Cha = N[C@@H](CC1CCCCC1)C(=O)O; AMC = Cc1cc(=O)oc2cc(N*)ccc12
# Settings: for aqueous solubility: pH 6.8
Structure (SMILES),MDR1-MDCK efflux ratio,"intrinsic clearance, human liver microsomes","intrinsic clearance, rat liver microsomes",aqueous solubility,"fraction unbound, human plasma","fraction unbound, rat plasma"
Cc1cc(CNc2cc(C(=O)N(C)C)ccn2)sc1Br,0.744,36.2 mL/min/kg,799 mL/min/kg,47.3 µg/mL,,
Cc1ccc(C(=O)C(=O)Nc2c(C)nn(C)c2C)cc1,0.615,20 mL/min/kg,115 mL/min/kg,32.6 µg/mL,,
COc1cc(C)cc(OC)c1-c1ccc(OCC(N)=O)cc1,,≤ 4.74 mL/min/kg,253 mL/min/kg,,,
O=C1CCCC[C@@H]2[C@H](C[C@@H](Cc3ccccc3F)N2C(=O)c2cccc3ncccc23)N1,48.1,63.7 mL/min/kg,400 mL/min/kg,,0.19,0.223
CN(CC1(CO)CCC1)C(=O)CCN1CCCCC1=O,23.2,≤ 4.74 mL/min/kg,46 mL/min/kg,,,
O=[N+]([O-])c1ccc(S(=O)(=O)Nc2cccc(-c3nc4ccccc4s3)c2)cc1,,267 mL/min/kg,512 mL/min/kg,,,
C[C@]1(O)CN(C(=O)Cn2cnc3ccccc32)CC[C@@H]1Oc1ccccc1,47.2,5.54 mL/min/kg,181 mL/min/kg,,,
CN(C)C(=O)C1(Cc2ccccc2-c2ccccc2)CCN(C(=O)C2CCCO2)CC1 (configuration not stated),17.3,395 mL/min/kg,2390 mL/min/kg,84.1 µg/mL,0.0799,0.184
Cc1cccc(NC(=O)C(=O)c2c(C)nn(C)c2C)n1,,19.4 mL/min/kg,231 mL/min/kg,,,
CCc1ccccc1NC(=O)Cn1nc(C)cc1C,0.716,25.2 mL/min/kg,94.9 mL/min/kg,44.2 µg/mL,,
Cc1nc(Cl)cc(Nc2ccc3c(c2)N(C)C(=O)CO3)n1,0.746,34.6 mL/min/kg,63.2 mL/min/kg,30 µg/mL,,
Cc1noc(-c2ccccc2C(=O)O)n1,,≤ 4.74 mL/min/kg,≤ 10.7 mL/min/kg,35.3 µg/mL,,
C=C1C[C@@H]2[C@H](CC[C@]3(C)C(=O)CC[C@@H]23)[C@@]2(C)C=CC(=O)C=C12,0.494,≤ 4.74 mL/min/kg,≤ 10.7 mL/min/kg,,,
CC(C)N(C)S(=O)(=O)N1CCC(CNC(=O)CCCn2cccn2)CC1,57.9,16.3 mL/min/kg,285 mL/min/kg,,,
Cc1cnc(Nc2ccc(OCCN3CCCC3)cc2)nc1Nc1cccc(S(=O)(=O)NC(C)(C)C)c1,,34.1 mL/min/kg,209 mL/min/kg,,,
CSc1ncccc1C(=O)Nc1ccc(N2CCCCC2=O)cc1,8.14,≤ 4.74 mL/min/kg,17.8 mL/min/kg,8.97 µg/mL,,
NC(=O)CN1CCC(COc2ccccc2C(F)(F)F)CC1,0.524,12.9 mL/min/kg,1110 mL/min/kg,,,
CN(C)c1nccc(N2CCN(CCCCCF)CC2)n1,0.419,32.4 mL/min/kg,1440 mL/min/kg,,,
Cc1nc(C(=O)NC2CC2)ccc1C#N,,,,36.2 µg/mL,,
N#Cc1ccc(CN2CC(n3cccn3)C2)cc1,0.596,≤ 4.74 mL/min/kg,20.7 mL/min/kg,36.5 µg/mL,,

Structure (SMILES),MDR1-MDCK efflux ratio,"intrinsic clearance, human liver microsomes","intrinsic clearance, rat liver microsomes",aqueous solubility,"fraction unbound, human plasma","fraction unbound, rat plasma"
CCOc1ccccc1N/C=C1\C(=O)Oc2ccccc2C1=O,,,,0.66 µg/mL,,
CCC(CC)NC(=O)c1cc(C)nc2onc(C)c12,1.34,≤ 4.74 mL/min/kg,≤ 10.7 mL/min/kg,45.5 µg/mL,,
COc1ccc(Cc2ncnn2-c2ccc3c(c2)OCO3)c(OC)c1,0.614,131 mL/min/kg,3040 mL/min/kg,34.9 µg/mL,,
COc1ccc([C@H]2CN(C(C)=O)[C@@H]3CCCN(Cc4cccc(F)c4)[C@H]23)cc1,1.35,176 mL/min/kg,1970 mL/min/kg,45 µg/mL,0.0394,0.0393
Cc1cc(F)ccc1C1C(=O)NCCN1C(=O)c1ccc2nccn2c1 (configuration not stated),8.42,6 mL/min/kg,27.7 mL/min/kg,62.2 µg/mL,0.604,0.893
Cc1cc(C(=O)N(C)Cc2ccccc2C)[nH]n1,,≤ 4.74 mL/min/kg,239 mL/min/kg,,,
COc1ccc(C)nc1-c1ccc(OC)c(OC)c1OC,0.981,≤ 4.74 mL/min/kg,359 mL/min/kg,,,
Cc1nccn1CCCN1C(=O)SC(C)(C)C1=O,2.51,≤ 4.74 mL/min/kg,83 mL/min/kg,29.2 µg/mL,,
Nc1ccc2c(c1)ncn2-c1ccccc1,,7.59 mL/min/kg,25.3 mL/min/kg,,,
Cc1ccc(C)c(-n2c(S)nnc2-c2ccc(O)cc2)c1,31.1,5.5 mL/min/kg,164 mL/min/kg,22.1 µg/mL,,
Cc1ccc(C)c(OCCN(C)C(=O)c2ccc3c(c2)nnn3C)c1,1.23,59.5 mL/min/kg,1030 mL/min/kg,29.2 µg/mL,,
O=C(NCCc1ccc(O)c(O)c1)Nc1ccccn1,,≤ 4.74 mL/min/kg,149 mL/min/kg,47.5 µg/mL,,
NC(=O)Cn1c2ccccc2c2nc3ccccc3nc21,,,,0.15 µg/mL,,
O=c1c(-c2ccc(F)cc2)c(-c2ccncc2)[nH]n1-c1ccc(Cl)cc1,1.46,≤ 4.74 mL/min/kg,≤ 10.7 mL/min/kg,21.8 µg/mL,,
COc1ccc(C(=O)c2ccc(C)cc2)c(OC)c1,0.46,102 mL/min/kg,3010 mL/min/kg,,,
O=c1[nH]c2ccccc2n1C1CCN(Cc2nc(-c3ccsc3)no2)CC1,3.73,16.3 mL/min/kg,263 mL/min/kg,5.8 µg/mL,,
COc1ccc(CN2CC(c3ccncc3)C2)cc1Cn1cccn1,6.36,10.8 mL/min/kg,397 mL/min/kg,,,
Cc1cc(=O)oc2cc(NC(=O)[C@H](CCCCN)NC(=O)[C@H](CC3CCCCC3)NC(=O)OCC3c4ccccc4-c4ccccc43)ccc12 (Fmoc-[Cha]-Lys-{AMC}),1.11,≤ 4.74 mL/min/kg,≤ 10.7 mL/min/kg,,,
Cc1cc(NC(=O)c2ccc(Cl)cc2F)no1,,,,7 µg/mL,,
Cc1ccc(-c2ccc(NC(=O)c3ncoc3-c3ccccc3)cc2)o1,0.447,,,0.37 µg/mL,,

Structure (SMILES),MDR1-MDCK efflux ratio,"intrinsic clearance, human liver microsomes","intrinsic clearance, rat liver microsomes",aqueous solubility,"fraction unbound, human plasma","fraction unbound, rat plasma"
O=C(Nc1cc(C2CC2)n[nH]1)C1CCN(C(=O)COc2ccccc2)CC1,,,,42.5 µg/mL,,
CC1=CCN(C(=O)c2cc(C)nc3cc(C)cc(C)c23)CC1,1.03,97.7 mL/min/kg,2140 mL/min/kg,,,
Cc1nc(C2CCN(c3ccc(F)cc3C#N)CC2)no1,,9.68 mL/min/kg,527 mL/min/kg,,,
c1cncc(-c2nnc3n2[C@H]2CN(Cc4cccs4)C[C@H]2CC3)c1,2.69,7.21 mL/min/kg,343 mL/min/kg,,,
Cc1nnc(-c2ccccc2-c2c[nH]nc2C)s1,,,,30.9 µg/mL,,
O=C(Nc1ccc2c(c1)N(CC(F)F)C(=O)CS2)C1CC=CC1,0.742,52.6 mL/min/kg,391 mL/min/kg,,,
CCc1cc2c(N3CCN(Cc4nccn4C)CC3)ncnc2s1,,,,66.8 µg/mL,,
O=C(NCCc1ccc(F)cc1)n1ccnc1,,39.7 mL/min/kg,95.6 mL/min/kg,,,
CCCCCCCCc1ccc(CCC(N)(CO)CO)cc1,,7.6 mL/min/kg,17 mL/min/kg,,,
Cc1cc(C(=O)NC2CCN(c3nc(-c4cccs4)nc4ccccc34)CC2)on1,0.753,,,0.96 µg/mL,,
CCc1cccc(C)c1NC(=O)c1ccc(C)o1,0.661,≤ 4.74 mL/min/kg,172 mL/min/kg,,,
CSc1cnc(N2CCCN(c3ncc(SC)cn3)CC2)nc1,0.648,131 mL/min/kg,1850 mL/min/kg,,,
Cc1nc(C2CCNCC2)cc(N(C)C)n1,4.51,≤ 4.74 mL/min/kg,≤ 10.7 mL/min/kg,38.5 µg/mL,,
NS(=O)(=O)OC[C@@H]1C[C@@H](n2ccc3c(N[C@H]4CCc5ccccc54)ncnc32)C[C@@H]1O,51.9,40.9 mL/min/kg,680 mL/min/kg,44.4 µg/mL,,
CCC(C)(C)N1CCN(C(=O)NCCc2cc(C)no2)CC1,7.18,≤ 4.74 mL/min/kg,274 mL/min/kg,,,
Cc1cc(F)ccc1-c1nc(CCn2c(C)nc3ccccc32)no1,0.696,398 mL/min/kg,1800 mL/min/kg,,,
Cc1nc(N(C)C)cc(C2(C)CCNCC2)n1,17.7,≤ 4.74 mL/min/kg,18.4 mL/min/kg,45 µg/mL,,
Cc1nc(NCC(C)(C)c2ccccc2)n(C)n1,1.07,10.7 mL/min/kg,235 mL/min/kg,36.2 µg/mL,,
COCc1cccc(NC(=O)c2cn(C)c3ccccc23)c1,,,,3.71 µg/mL,,
C#CCNC(=O)Cc1coc2cc(OC)ccc12,0.646,15.4 mL/min/kg,183 mL/min/kg,56.4 µg/mL,,
